From US20260365647A1, “AKT1 MODULATORS” (Alterome Therapeutics, Inc., priority 2022, published 2026)

The molecules below were run against T1, AKT1-E17K (Homo sapiens, UniProt P31749, E17K) (assay: NanoBRET Target Engagement (TE) Assay).
T1 construct: host or cells: HEK-293 (ATCC CRL-1573)
Assay type: cell-based
Source text: The NanoBRET™ Target Engagement (TE) Intracellular Kinase Assays are based on the NanoBRET™ System (Promega Corporation), an energy transfer technique designed to measure molecular proximity in living cells. The NanoBRET™ TE Assays measure the apparent affinity of test compounds by competitive displacement of the NanoBRET™ tracer compound, which is a cell permeable molecule engineered to be reversibly bound to a NanoLuc® luciferase-kinase fusion expressed in cells. For compound screening, when a test compound binds to the selected kinase, the BRET signal is attenuated. […] All cells were evaluated for viability prior to transfection and optimization of the transfection was done prior to experimentation. […] Following transfection, cells were washed and resuspended in Opti-MEM. NanoBRET assays were performed in white, 384-well plates (Corning) at a density of […]. All example compounds were prepared as concentrated stock solutions in DMSO (Sigma-Aldrich). Compounds are dissolved in DMSO to make 10 mM stock solution. […] A Labcyte ECHO 550 compound dispenser was used to facilitate compound transfer directly to cells. Cells were equilibrated for 2 hr with energy transfer probes and example compound prior to BRET measurements. […] For target engagement analysis, the energy transfer probes were added to the cells at concentrations optimized for the target in question (AKT E17K). Following compound incubation, NanoBRET NanoGlo Substrate (Promega Cat #N157D) and Extracellular Nanoluc Inhibitor (Promega Cat #N235C) was added according to the manufacturer's recommended protocol, and luminescence was measured on Envision Reader (Perkin Elmer) Multimode Luminometer equipped with 450 nmBPfilter (donor) and 600 nmLPfilter (acceptor), using 0.5 s integration time. Milli-BRET units (mBU) are calculated by multiplying the raw BRET values by 1000. Apparent tracer affinity values (EC50) were determined using the sigmoidal dose-response (variable slope). Competitive displacement data were then plotted and data were fit to determine the EC50 value for each example compound.

T1 sequence (P31749 whole entry E17K): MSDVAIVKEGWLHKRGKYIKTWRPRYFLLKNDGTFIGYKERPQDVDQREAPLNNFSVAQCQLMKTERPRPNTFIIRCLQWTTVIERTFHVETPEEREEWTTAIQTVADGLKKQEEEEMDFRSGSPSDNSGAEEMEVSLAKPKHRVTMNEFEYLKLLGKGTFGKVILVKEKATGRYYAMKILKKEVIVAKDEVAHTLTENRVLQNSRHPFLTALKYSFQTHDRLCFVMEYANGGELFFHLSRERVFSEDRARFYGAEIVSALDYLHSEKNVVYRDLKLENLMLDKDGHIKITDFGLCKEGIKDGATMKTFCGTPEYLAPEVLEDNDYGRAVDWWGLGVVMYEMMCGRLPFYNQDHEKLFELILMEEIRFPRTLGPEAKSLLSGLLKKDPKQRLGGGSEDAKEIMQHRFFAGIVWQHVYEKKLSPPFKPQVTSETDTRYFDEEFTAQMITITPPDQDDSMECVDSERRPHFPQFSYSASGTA

| Compound | IC50 [nM] |
| --- | --- |
| Nc1ncccc1-c1nc2cccnc2n1-c1ccc(CNC(=O)c2ccc(O)c(C=O)c2)cc1 [Example 2, N-(4-(2-(2-Aminopyridin-3-yl)-3H-imidazo[4,5-b]pyridin-3-yl)benzyl)-3-formyl-4-hydroxybenzamide] | 60 to 600 |
| Nc1ncccc1-c1nc2cccnc2n1-c1ccc(CNC(=O)c2ccc(C=O)c(O)c2)cc1 [Example 3, N-(4-(2-(2-Aminopyridin-3-yl)-3H-imidazo[4,5-b]pyridin-3-yl)benzyl)-4-formyl-3-hydroxybenzamide] | > 600 |
| Nc1ncccc1-c1nc2ccc(-c3ccccc3)nc2n1-c1ccc(CN2CCN(C(=O)c3ccc(O)c(C=O)c3)CC2)cc1 [Example 5, 5-(4-(4-(2-(2-Aminopyridin-3-yl)-5-phenyl-3H-imidazo[4,5-b]pyridin-3-yl)benzyl)piperazine-1-carbonyl)-2-hydroxybenzaldehyde] | 60 to 600 |
| Nc1ncccc1-c1nc2ccc(-c3ccccc3)nc2n1-c1ccc(CN2CCC(NC(=O)c3ccc(O)c(C=O)c3)CC2)cc1 [Example 7, N-(1-(4-(2-(2-Aminopyridin-3-yl)-5-phenyl-3H-imidazo[4,5-b]pyridin-3-yl)benzyl)piperidin-4-yl)-3-formyl-4-hydroxybenzamide] | < 15 |
| Nc1ncccc1-c1nc2ccc(-c3ccccc3)nc2n1-c1ccc(CN2CCC(NC(=O)c3ccc(C=O)c(O)c3)CC2)cc1 [Example 8, N-(1-(4-(2-(2-Aminopyridin-3-yl)-5-phenyl-3H-imidazo[4,5-b]pyridin-3-yl)benzyl)piperidin-4-yl)-4-formyl-3-hydroxybenzamide] | 60 to 600 |
| Nc1ncccc1-c1nc2ccc(-c3ccccc3)nc2n1-c1ccc(CN2CCN(c3ccc(C=O)c(O)c3)CC2)cc1 [Example 9, 4-(4-(4-(2-(2-Aminopyridin-3-yl)-5-phenyl-3H-imidazo[4,5-b]pyridin-3-yl)benzyl)piperazin-1-yl)-2-hydroxybenzaldehyde] | 15 to 60 |
| Nc1ncccc1-c1nc2ccc(-c3ccccc3)nc2n1-c1ccc(CN2CCN(c3ccc(O)c(C=O)c3)CC2)cc1 [Example 10, 5-(4-(4-(2-(2-aminopyridin-3-yl)-5-phenyl-3H-imidazo[4,5-b]pyridin-3-yl)benzyl)piperazin-1-yl)-2-hydroxybenzaldehyde] | 60 to 600 |
| Nc1ncccc1-c1nc2ccc(-c3ccccc3)nc2n1-c1ccc(CN2CCC(N(C(=O)c3ccc(O)c(C=O)c3)C3CC3)CC2)cc1 [Example 12, N-(1-(4-(2-(2-aminopyridin-3-yl)-5-phenyl-3H-imidazo[4,5-b]pyridin-3-yl)benzyl)piperidin-4-yl)-N-cyclopropyl-3-formyl-4-hydroxybenzamide] | 60 to 600 |
| Nc1ncccc1-c1nc2ccc(-c3ccc[nH]c3=O)nc2n1-c1ccc(CN2CCN(C(=O)c3ccc(C=O)c(O)c3)CC2)cc1 [Example 15, 4-(4-(4-(2-(2-Aminopyridin-3-yl)-5-(2-oxo-1,2-dihydropyridin-3-yl)-3H-imidazo[4,5-b]pyridin-3-yl)benzyl)piperazine-1-carbonyl)-2-hydroxybenzaldehyde] | > 600 |
| CN(Cc1ccc(-n2c(-c3cccnc3N)nc3ccc(-c4ccccc4)nc32)cc1)c1ccc(C=O)c(O)c1 [Example 17, 4-((4-(2-(2-Aminopyridin-3-yl)-5-phenyl-3H-imidazo[4,5-b]pyridin-3-yl)benzyl)(methyl)amino)-2-hydroxybenzaldehyde] | 60 to 600 |
| Nc1ncccc1-c1nc2ccc(-c3ccccc3)nc2n1-c1ccc(CN2CCN(c3cccc(C=O)c3O)CC2)cc1 [Example 23, 3-(4-(4-(2-(2-aminopyridin-3-yl)-5-phenyl-3H-imidazo[4,5-b]pyridin-3-yl)benzyl)piperazin-1-yl)-2-hydroxybenzaldehyde] | 60 to 600 |
| Nc1ncccc1-c1nc2ccc(-c3ccccc3)nc2n1-c1ccc(CN2CCN(c3cc(O)c(C=O)cc3Br)CC2)cc1 [Example 27, 4-(4-(4-(2-(2-Aminopyridin-3-yl)-5-phenyl-3H-imidazo[4,5-b]pyridin-3-yl)benzyl)piperazin-1-yl)-5-bromo-2-hydroxybenzaldehyde] | 60 to 600 |
| Nc1ncccc1-c1nc2ccc(C3=CCOCC3)nc2n1-c1ccc(CN2CCN(C(=O)c3ccc(O)c(C=O)c3)CC2)cc1 [Example 29, 5-(4-(4-(2-(2-Aminopyridin-3-yl)-5-(3,6-dihydro-2H-pyran-4-yl)-3H-imidazo[4,5-b]pyridin-3-yl)benzyl)piperazine-1-carbonyl)-2-hydroxybenzaldehyde] | 60 to 600 |
| Nc1ncccc1-c1nc2ccc(C3=CCOCC3)nc2n1-c1ccc(CN2CCN(C(=O)c3ccc(C=O)c(O)c3)CC2)cc1 [Example 30, 4-(4-(4-(2-(2-Aminopyridin-3-yl)-5-(3,6-dihydro-2H-pyran-4-yl)-3H-imidazo[4,5-b]pyridin-3-yl)benzyl)piperazine-1-carbonyl)-2-hydroxybenzaldehyde] | 60 to 600 |
| Nc1ncccc1-c1nc2ccc(N3CCOCC3)nc2n1-c1ccc(CN2CCN(c3ccc(C=O)c(O)c3)CC2)cc1 [Example 31, 4-(4-(4-(2-(2-Aminopyridin-3-yl)-5-morpholino-3H-imidazo[4,5-b]pyridin-3-yl)benzyl)piperazin-1-yl)-2-hydroxybenzaldehyde] | 60 to 600 |

Continued, values first:

| IC50 [nM] | Compound |
| --- | --- |
| 60 to 600 | Nc1ncccc1-c1nc2ccc(-c3ccccc3)nc2n1-c1ccc(CN2CCN(C(=O)c3ccc(C=O)c(O)c3)CC2)cc1 [Example 6, 4-(4-(4-(2-(2-Aminopyridin-3-yl)-5-phenyl-3H-imidazo[4,5-b]pyridin-3-yl)benzyl)piperazine-1-carbonyl)-2-hydroxybenzaldehyde] |
| 60 to 600 | CCN(C(=O)c1ccc(O)c(C=O)c1)C1CCN(Cc2ccc(-n3c(-c4cccnc4N)nc4ccc(-c5ccccc5)nc43)cc2)CC1 [Example 13, N-(1-(4-(2-(2-Aminopyridin-3-yl)-5-phenyl-3H-imidazo[4,5-b]pyridin-3-yl)benzyl)piperidin-4-yl)-N-ethyl-3-formyl-4-hydroxybenzamide] |
| > 600 | Nc1ncccc1-c1nc2ccc(-c3ccc[nH]c3=O)nc2n1-c1ccc(CN2CCN(C(=O)c3ccc(O)c(C=O)c3)CC2)cc1 [Example 14, 5-(4-(4-(2-(2-Aminopyridin-3-yl)-5-(2-oxo-1,2-dihydropyridin-3-yl)-3H-imidazo[4,5-b]pyridin-3-yl)benzyl)piperazine-1-carbonyl)-2-hydroxybenzaldehyde] |
| 60 to 600 | Nc1ncccc1-c1nc2cccnc2n1-c1ccc(CN2CCN(c3ccc(C=O)c(O)c3)CC2)cc1 [Example 16, 4-(4-(4-(2-(2-Aminopyridin-3-yl)-3H-imidazo[4,5-b]pyridin-3-yl)benzyl)piperazin-1-yl)-2-hydroxybenzaldehyde] |
| > 600 | CN(Cc1ccc(-n2c(-c3cccnc3N)nc3ccc(-c4ccccc4)nc32)cc1)c1ccc(O)c(C=O)c1 [Example 18, 5-((4-(2-(2-Aminopyridin-3-yl)-5-phenyl-3H-imidazo[4,5-b]pyridin-3-yl)benzyl)(methyl)amino)-2-hydroxybenzaldehyde] |
| 60 to 600 | Nc1ncccc1-c1nc2ccc(-c3ccccc3)nc2n1-c1ccc(CN2CCN(c3cc(O)c(C=O)c(F)c3)CC2)cc1 [Example 24, 4-(4-(4-(2-(2-Aminopyridin-3-yl)-5-phenyl-3H-imidazo[4,5-b]pyridin-3-yl)benzyl)piperazin-1-yl)-2-fluoro-6-hydroxybenzaldehyde] |
| 15 to 60 | Nc1ncccc1-c1nc2ccc(-c3ccccc3)nc2n1-c1ccc(CN2CCN(c3cc(O)c(C=O)cc3F)CC2)cc1 [Example 25, 4-(4-(4-(2-(2-Aminopyridin-3-yl)-5-phenyl-3H-imidazo[4,5-b]pyridin-3-yl)benzyl)piperazin-1-yl)-5-fluoro-2-hydroxybenzaldehyde] |
| 15 to 60 | Nc1ncccc1-c1nc2ccc(-c3ccccc3)nc2n1-c1ccc(CN2CCN(c3ccc(C=O)c(O)c3F)CC2)cc1 [Example 26, 4-(4-(4-(2-(2-Aminopyridin-3-yl)-5-phenyl-3H-imidazo[4,5-b]pyridin-3-yl)benzyl)piperazin-1-yl)-3-fluoro-2-hydroxybenzaldehyde] |
| 60 to 600 | C=Cc1cc(C=O)c(O)cc1N1CCN(Cc2ccc(-n3c(-c4cccnc4N)nc4ccc(-c5ccccc5)nc43)cc2)CC1 [Example 28, 4-(4-(4-(2-(2-Aminopyridin-3-yl)-5-phenyl-3H-imidazo[4,5-b]pyridin-3-yl)benzyl)piperazin-1-yl)-2-hydroxy-5-vinylbenzaldehyde] |
| > 600 | Nc1ncccc1-c1nc2ccc(N3CCOCC3)nc2n1-c1ccc(CN2CCN(C(=O)c3ccc(O)c(C=O)c3)CC2)cc1 [Example 32, 5-(4-(4-(2-(2-Aminopyridin-3-yl)-5-morpholino-3H-imidazo[4,5-b]pyridin-3-yl)benzyl)piperazine-1-carbonyl)-2-hydroxybenzaldehyde] |
| > 600 | Nc1ncccc1-c1nc2ccc(N3CCOCC3)nc2n1-c1ccc(CN2CCN(C(=O)c3ccc(C=O)c(O)c3)CC2)cc1 [Example 33, 4-(4-(4-(2-(2-Aminopyridin-3-yl)-5-morpholino-3H-imidazo[4,5-b]pyridin-3-yl)benzyl)piperazine-1-carbonyl)-2-hydroxybenzaldehyde] |
